From patent publication US20110039763A1, “TARGETED ANTIMICROBIAL MOIETIES” (C3 JIAN, INC., priority 2009, published 2011) come the findings set out here.

In assay [1] the test system is microorganisms. In words: Targeting peptide binding to target microorganisms (Tables 3, 10, 12). Conditions: microorganism(s) the targeting peptide binds; binding in aqueous buffers varied with peptide solubility, preferably 1x PBS.
The test system of assay [2] is microorganisms. In words: Morphology, biofilm and growth disrupting peptides (Table 5). In kind it is cell-based. Further details: key: A: Peptide aggregates; B: Less hyphal formation; Clumps; Diffuse clumps and small polyps; F: Diffuse growth; H: Thin; I: Growth inhibition; Microcolony formation; Rippled; Small polyps; Thick; W: Halo formation on top, microlonies on bottom. An excerpt:
In certain embodiments peptides that induce alterations in phenotype or other biological activities can also be used as antimicrobial effector moieties.

On to “PF-657 (chain 1 YVANYTITQFGRDFDDRLAVAIHFA; chain 2 YVANYTITQFGRDFDDRLAVAIHFA; Peptide with targeting and/or antimicrobial activity)”, for which, in the assay with microorganisms [1], the “Target(s)” value is listed as “Mycobacteria spp”. Also, the “Organism, effect” value in the assay on microorganisms [2] (C. jeikeium) is recorded as “C. jeikeium (D)”; in the assay on microorganisms [2] (E. faecalis), “E. faecalis (D)”; in the assay with microorganisms [2] (MRSA), “MRSA (D)”; in the assay on microorganisms [2] (S. epidermidis) it was “S. epidermidis (C)”; in the assay with microorganisms [2] (S. pneumoniae), “S. pneumoniae (H)”.
“PF-658 (chain 1 PTTPPPTTPPEIPTGGTVIST; chain 2 PTTPPPTTPPEIPTGGTVIST; Peptide with targeting and/or antimicrobial activity)”: the “Target(s)” value in the assay with microorganisms [1] was “Mycobacteria spp”. Moreover, the “Organism, effect” value is recorded as “MRSA (R)” with microorganisms [2] (MRSA) and “S. pneumoniae (H)” in the assay with microorganisms [2] (S. pneumoniae).
As for “PF-659 (chain 1 TVIST; chain 2 TVIST; Peptide with targeting and/or antimicrobial activity)”, the “Target(s)” value in the assay with microorganisms [1] is recorded as “Mycobacteria spp”. Besides, the “Organism, effect” value is recorded as “B. subtilis (H)” in the assay on microorganisms [2] (B. subtilis), “MRSA (R)” in the assay on microorganisms [2] (MRSA), “S. epidermidis (M)” in the assay on microorganisms [2] (S. epidermidis) and “S. pneumoniae (C)” in the assay on microorganisms [2] (S. pneumoniae).
As for “PF-660 (chain 1 TDPQATAAPRRRTSPR; chain 2 TDPQATAAPRRRTSPR; Peptide with targeting and/or antimicrobial activity)”, in the assay with microorganisms [1], the “Target(s)” value was “Mycobacteria spp”. Further, the “Organism, effect” value in the assay on microorganisms [2] (S. pneumoniae) is recorded as “S. pneumoniae (H)”.
“PF-661 (chain 1 PDEDIRRRAILPPAGPCRPMSPE; chain 2 PDEDIRRRAILPPAGPCRPMSPE; Peptide with targeting and/or antimicrobial activity)”: in the assay with microorganisms [1], the “Target(s)” value is “Mycobacteria spp”. For the same substance, the “Organism, effect” value in the assay with microorganisms [2] (MRSA) is “MRSA (R)”.
Regarding “PF-662 (chain 1 GKQSRAHGPVASRREFRRKSG; chain 2 GKQSRAHGPVASRREFRRKSG; Peptide with targeting and/or antimicrobial activity)”, the “Target(s)” value in the assay on microorganisms [1] is “Mycobacteria spp”. Further, the “Organism, effect” value in the assay with microorganisms [2] (S. pneumoniae) is given as “S. pneumoniae (A)”.
Take “PF-663 (chain 1 ATLIPRKA; chain 2 ATLIPRKA; Peptide with targeting and/or antimicrobial activity)”: the “Target(s)” value in the assay with microorganisms [1] is recorded as “Mycobacteria spp”. Further, the “Organism, effect” value in the assay with microorganisms [2] (S. pneumoniae) is given as “S. pneumoniae (A)”.
For “PF-665 (chain 1 VLRVATAVGEVPTGL; chain 2 VLRVATAVGEVPTGL; Peptide with targeting and/or antimicrobial activity)”, the “Target(s)” value in the assay with microorganisms [1] is recorded as “Mycobacteria spp”. For the same substance, the “Organism, effect” value with microorganisms [2] (S. pneumoniae) is recorded as “S. pneumoniae (H)”.
As for “PF-666 (chain 1 PNRRSRPR; chain 2 PNRRSRPR; Peptide with targeting and/or antimicrobial activity)”, the “Target(s)” value in the assay with microorganisms [1] is listed as “Mycobacteria spp”. The “Organism, effect” value in the assay on microorganisms [2] (S. pneumoniae) is reported as “S. pneumoniae (A)”.
Take “PF-667 (chain 1 PAHQRLRIDQRLVADRDMVQDYES; chain 2 PAHQRLRIDQRLVADRDMVQDYES; Peptide with targeting and/or antimicrobial activity)”: the “Target(s)” value in the assay with microorganisms [1] is on record as “Mycobacteria spp”. Also, the “Organism, effect” value in the assay with microorganisms [2] (E. faecalis) was “E. faecalis (R)”; in the assay with microorganisms [2] (MRSA), “MRSA (R)”; in the assay with microorganisms [2] (S. epidermidis) it was “S. epidermidis (R)”; in the assay with microorganisms [2] (S. pneumoniae), “S. pneumoniae (R)”.
Take “PF-668 (chain 1 TNAESMALAFRGRVHMSVNIAGLT; chain 2 TNAESMALAFRGRVHMSVNIAGLT; Peptide with targeting and/or antimicrobial activity)”: in the assay on microorganisms [1], the “Target(s)” value is “Mycobacteria spp”. For the same substance, the “Organism, effect” value in the assay with microorganisms [2] (B. subtilis) is “B. subtilis (A)”; in the assay on microorganisms [2] (C. albicans) it was “C. albicans (A)”; with microorganisms [2] (C. jeikeium), “C. jeikeium (D)”; with microorganisms [2] (E. faecalis), “E. faecalis (D)”; in the assay on microorganisms [2] (MRSA), “MRSA (R)”; with microorganisms [2] (S. epidermidis), “S. epidermidis (M)”. For the same substance, the “Organism, effect” value with microorganisms [2] (S. pneumoniae) is “S. pneumoniae (M)”.
For “PF-675 (EIIPISPTRRCEMHTMSSAEYRGL; Peptide with targeting and/or antimicrobial activity)”, the “Target(s)” value in the assay with microorganisms [1] is reported as “Mycobacteria spp”. For the same substance, the “Organism, effect” value is “E. faecalis (R)” in the assay on microorganisms [2] (E. faecalis) and “S. pneumoniae (C)” with microorganisms [2] (S. pneumoniae).
“PF-677 (TCRGAGMH; Peptide with targeting and/or antimicrobial activity)”: the “Target(s)” value in the assay on microorganisms [1] is on record as “Mycobacteria spp”. In addition, the “Organism, effect” value with microorganisms [2] (E. faecalis) was “E. faecalis (R)”; with microorganisms [2] (MRSA), “MRSA (D)”; in the assay on microorganisms [2] (S. epidermidis), “S. epidermidis (R)”; in the assay with microorganisms [2] (S. pneumoniae) it was “S. pneumoniae (D)”.
On to “PF-680 (ADPHPTTGI; Peptide with targeting and/or antimicrobial activity)”, for which, in the assay with microorganisms [1], the “Target(s)” value was “Mycobacteria spp”. In addition, the “Organism, effect” value with microorganisms [2] (MRSA) is on record as “MRSA (R)”.
Turning to “PF-682 (RRGKSEQGLSRR; Peptide with targeting and/or antimicrobial activity)”, in the assay on microorganisms [1], the “Target(s)” value is “Mycobacteria spp”. For the same substance, the “Organism, effect” value in the assay on microorganisms [2] (S. pneumoniae) is on record as “S. pneumoniae (A)”.
On to “PF-683 (LWPVA; Peptide with targeting and/or antimicrobial activity)”, for which the “Target(s)” value with microorganisms [1] is on record as “Mycobacteria spp”. The “Organism, effect” value with microorganisms [2] (MRSA) was “MRSA (R)”; in the assay with microorganisms [2] (S. epidermidis) it was “S. epidermidis (R)”; in the assay on microorganisms [2] (S. pneumoniae), “S. pneumoniae (H)”.
Take “PF-684 (RKLSLASGFALWRRSLV; Peptide with targeting and/or antimicrobial activity)”: in the assay with microorganisms [1], the “Target(s)” value is “Mycobacteria spp”. In addition, the figures for the “Organism, effect” value in the assay on microorganisms [2] (C. albicans), in the assay on microorganisms [2] (E. faecalis) and with microorganisms [2] (S. pneumoniae) were “C. albicans (B)”, “E. faecalis (A)” and “S. pneumoniae (C)”, respectively.
For “PF-685 (PTLWLACL; Peptide with targeting and/or antimicrobial activity)”, in the assay with microorganisms [1], the “Target(s)” value was “Mycobacteria spp”. For the same substance, the “Organism, effect” value in the assay with microorganisms [2] (C. jeikeium) was “C. jeikeium (R)”; in the assay with microorganisms [2] (E. faecalis), “E. faecalis (R)”; with microorganisms [2] (MRSA), “MRSA (M)”; in the assay on microorganisms [2] (S. epidermidis) it was “S. epidermidis (M)”; with microorganisms [2] (S. pneumoniae) it was “S. pneumoniae (M)”.
As for “PF-687 (AKRVLSLAVAPHRRQPVQGT; Peptide with targeting and/or antimicrobial activity)”, in the assay on microorganisms [1], the “Target(s)” value is “Mycobacteria spp”. Also, the “Organism, effect” value with microorganisms [2] (S. pneumoniae) is recorded as “S. pneumoniae (A)”.
In the case of “PF-688 (ARNHAVIPAG; Peptide with targeting and/or antimicrobial activity)”, the “Target(s)” value in the assay with microorganisms [1] is given as “Mycobacteria spp”. Further, the “Organism, effect” value in the assay with microorganisms [2] (S. pneumoniae) is recorded as “S. pneumoniae (A)”.
On to “PF-690 (MIPLAGDPVSSHRTVEFGVLGTYLVSGGSL; Peptide with targeting and/or antimicrobial activity)”, for which, in the assay on microorganisms [1], the “Target(s)” value is “Mycobacteria spp”. Moreover, the “Organism, effect” value in the assay on microorganisms [2] (E. faecalis) is “E. faecalis (R)”; with microorganisms [2] (MRSA) it was “MRSA (R)”; in the assay with microorganisms [2] (S. epidermidis) it was “S. epidermidis (R)”; in the assay on microorganisms [2] (S. pneumoniae), “S. pneumoniae (M)”.
For “PF-691 (HRTVEFGVLGTYLVSGGSL; Peptide with targeting and/or antimicrobial activity)”, the “Target(s)” value with microorganisms [1] is listed as “Mycobacteria spp”. Also, the “Organism, effect” value with microorganisms [2] (S. pneumoniae) is “S. pneumoniae (R)”.
For “PF-692 (GVAREDPLEPDPLAPIIDDSR; Peptide with targeting and/or antimicrobial activity)”, the “Target(s)” value in the assay with microorganisms [1] is “Mycobacteria spp”. Further, in the assay with microorganisms [2] (MRSA), the “Organism, effect” value is “MRSA (R)”.
Consider “PF-693 (PDPAR; Peptide with targeting and/or antimicrobial activity)”, for which, in the assay with microorganisms [1], the “Target(s)” value is listed as “Mycobacteria spp”. In addition, the “Organism, effect” value in the assay with microorganisms [2] (S. pneumoniae) was “S. pneumoniae (A)”.
As to “PF-694 (DLIRPLYSMSAPSVA; Peptide with targeting and/or antimicrobial activity)”, in the assay with microorganisms [1], the “Target(s)” value is “Mycobacteria spp”. In addition, the figures for the “Organism, effect” value in the assay on microorganisms [2] (MRSA) and in the assay on microorganisms [2] (S. pneumoniae) were “MRSA (R)” and “S. pneumoniae (A)”, respectively.
As for “PF-695 (ALSVMLGNIPLVVPNANQL; Peptide with targeting and/or antimicrobial activity)”, in the assay on microorganisms [1], the “Target(s)” value is “Mycobacteria spp”. The “Organism, effect” value was “E. faecalis (R)” in the assay with microorganisms [2] (E. faecalis), “MRSA (R)” in the assay with microorganisms [2] (MRSA) and “S. pneumoniae (C)” in the assay on microorganisms [2] (S. pneumoniae).
As for “PF-696 (IRSGISAAYARPLR; Peptide with targeting and/or antimicrobial activity)”, in the assay on microorganisms [1], the “Target(s)” value is recorded as “Mycobacteria spp”. Moreover, the “Organism, effect” value in the assay with microorganisms [2] (S. pneumoniae) was “S. pneumoniae (H)”.
Consider “PF-697 (RADARAK; Peptide with targeting and/or antimicrobial activity)”, for which the “Target(s)” value in the assay on microorganisms [1] is reported as “Mycobacteria spp”. Besides, the “Organism, effect” value is on record as “C. albicans (H)” in the assay on microorganisms [2] (C. albicans) and “S. pneumoniae (H)” in the assay with microorganisms [2] (S. pneumoniae).
In the case of “PF-698 (SSGRAGVKCRRPTGR; Peptide with targeting and/or antimicrobial activity)”, the “Target(s)” value in the assay on microorganisms [1] was “Mycobacteria spp”. Besides, the “Organism, effect” value is “C. albicans (H)” in the assay on microorganisms [2] (C. albicans), “E. faecalis (A)” with microorganisms [2] (E. faecalis) and “S. pneumoniae (A)” in the assay with microorganisms [2] (S. pneumoniae).
Take “PF-699 (GRAGVKCRRPTGR; Peptide with targeting and/or antimicrobial activity)”: in the assay with microorganisms [1], the “Target(s)” value is on record as “Mycobacteria spp”. Further, the “Organism, effect” value in the assay with microorganisms [2] (S. pneumoniae) is “S. pneumoniae (A)”.
Take “PF-700 (LNWPFTGR; Peptide with targeting and/or antimicrobial activity)”: in the assay with microorganisms [1], the “Target(s)” value is “Mycobacteria spp”. Besides, the “Organism, effect” value with microorganisms [2] (S. pneumoniae) is recorded as “S. pneumoniae (C)”.
As for “PF-702 (LSGRLAGRR; Peptide with targeting and/or antimicrobial activity)”, in the assay with microorganisms [1], the “Target(s)” value was “Mycobacteria spp”. In addition, in the assay on microorganisms [2] (S. pneumoniae), the “Organism, effect” value is given as “S. pneumoniae (H)”.
